Measured values reported in ChEMBL document CHEMBL1649524, “Resistance selection studies comparing the activity of razupenem (PTZ601) to vancomycin and linezolid against eight methicillin-resistant and two methicillin-susceptible Staphylococcus aureus strains” (2009).
≈ marks a conversion by molar mass, not a printed value.

What was measured:
Type in all cases: functional
[1] = test system: Staphylococcus aureus; assay: Antimicrobial activity against vancomycin-resistant Staphylococcus aureus 509 measured on day 50 by macrodilution method
[2] = test system: Staphylococcus aureus; assay: Antimicrobial activity against methicillin-resistant Staphylococcus aureus 525 measured on day 10 by macrodilution method; conditions: Staphylococcus aureus, 525, 240 h
[3] = test system: Staphylococcus aureus; assay: Antimicrobial activity against methicillin-resistant Staphylococcus aureus 525 measured on day 25 by macrodilution method; conditions: Staphylococcus aureus, 525, 600 h
[4] = test system: Staphylococcus aureus; assay: Antimicrobial activity against vancomycin-intermediate Staphylococcus aureus 555 by macrodilution method
[5] = test system: Staphylococcus aureus; assay: Antimicrobial activity against heterogeneous vancomycin-intermediate Staphylococcus aureus 873 by macrodilution method
[6] = test system: Staphylococcus aureus; assay: Antimicrobial activity against vancomycin-intermediate Staphylococcus aureus 1287 measured on day 20 by macrodilution method; conditions: Staphylococcus aureus, 1287, 480 h
[7] = test system: Staphylococcus aureus; assay: Antimicrobial activity against methicillin-resistant Staphylococcus aureus 547 measured after 10 antibiotic-free subculturing by macrodilution method
[8] = test system: Staphylococcus aureus; assay: Antimicrobial activity against methicillin-resistant Staphylococcus aureus 547 measured on day 10 by macrodilution method; conditions: Staphylococcus aureus, 547, 240 h
[9] = test system: Staphylococcus aureus; assay: Antimicrobial activity against methicillin-susceptible Staphylococcus aureus 540 measured on day 15 by macrodilution method; conditions: Staphylococcus aureus, 540, 360 h
[10] = test system: Staphylococcus aureus; assay: Antimicrobial activity against vancomycin-intermediate Staphylococcus aureus 555 measured on day 50 by macrodilution method
[11] = test system: Staphylococcus aureus; assay: Antimicrobial activity against heterogeneous vancomycin-intermediate Staphylococcus aureus 873 measured on day 15 by macrodilution method; conditions: Staphylococcus aureus, 873, 360 h
[12] = test system: Staphylococcus aureus; assay: Antimicrobial activity against heterogeneous vancomycin-intermediate Staphylococcus aureus 168 measured on day 25 by macrodilution method; conditions: Staphylococcus aureus, 168, 600 h
[13] = test system: Staphylococcus aureus; assay: Antimicrobial activity against heterogeneous vancomycin-intermediate Staphylococcus aureus 873 measured on day 20 by macrodilution method; conditions: Staphylococcus aureus, 873, 480 h
[14] = test system: Staphylococcus aureus; assay: Antimicrobial activity against methicillin-resistant Staphylococcus aureus 525 measured on day 50 by macrodilution method
[15] = test system: Staphylococcus aureus; assay: Antimicrobial activity against methicillin-resistant Staphylococcus aureus 525 measured on day 15 by macrodilution method; conditions: Staphylococcus aureus, 525, 360 h
[16] = test system: Staphylococcus aureus; assay: Antimicrobial activity against vancomycin-intermediate Staphylococcus aureus 555 measured on day 5 by macrodilution method; conditions: Staphylococcus aureus, 555, 120 h
[17] = test system: Staphylococcus aureus; assay: Antimicrobial activity against heterogeneous vancomycin-intermediate Staphylococcus aureus 168 measured on day 20 by macrodilution method; conditions: Staphylococcus aureus, 168, 480 h
[18] = test system: Staphylococcus aureus; assay: Antimicrobial activity against heterogeneous vancomycin-intermediate Staphylococcus aureus 168 measured on day 35 by macrodilution method
[19] = test system: Staphylococcus aureus; assay: Antimicrobial activity against methicillin-susceptible Staphylococcus aureus 540 by macrodilution method
[20] = test system: Staphylococcus aureus; assay: Antimicrobial activity against heterogeneous vancomycin-intermediate Staphylococcus aureus 873 measured on day 50 by macrodilution method
[21] = test system: Staphylococcus aureus; assay: Antimicrobial activity against heterogeneous vancomycin-intermediate Staphylococcus aureus 873 measured on day 30 by macrodilution method
[22] = test system: Staphylococcus aureus; assay: Antimicrobial activity against heterogeneous vancomycin-intermediate Staphylococcus aureus 168 measured on day 50 by macrodilution method
[23] = test system: Staphylococcus aureus; assay: Antimicrobial activity against heterogeneous vancomycin-intermediate Staphylococcus aureus 873 measured on day 25 by macrodilution method; conditions: Staphylococcus aureus, 873, 600 h
[24] = test system: Staphylococcus aureus; assay: Antimicrobial activity against methicillin-susceptible Staphylococcus aureus 543 measured on day 50 by macrodilution method
[25] = test system: Staphylococcus aureus; assay: Antimicrobial activity against heterogeneous vancomycin-intermediate Staphylococcus aureus 873 measured on day 40 by macrodilution method
[26] = test system: Staphylococcus aureus; assay: Antimicrobial activity against methicillin-susceptible Staphylococcus aureus 540 measured on day 40 by macrodilution method
[27] = test system: Staphylococcus aureus; assay: Antimicrobial activity against vancomycin-intermediate Staphylococcus aureus 555 after 27 passages by macrodilution method
[28] = test system: Staphylococcus aureus; assay: Antimicrobial activity against methicillin-susceptible Staphylococcus aureus 543 measured on day 40 by macrodilution method
[29] = test system: Staphylococcus aureus; assay: Antimicrobial activity against heterogeneous vancomycin-intermediate Staphylococcus aureus 168 measured on day 15 by macrodilution method; conditions: Staphylococcus aureus, 168, 360 h
[30] = test system: Staphylococcus aureus; assay: Antimicrobial activity against vancomycin-intermediate Staphylococcus aureus 1287 measured on day 25 by macrodilution method; conditions: Staphylococcus aureus, 1287, 600 h
[31] = test system: Staphylococcus aureus; assay: Antimicrobial activity against vancomycin-intermediate Staphylococcus aureus 555 measured on day 15 by macrodilution method; conditions: Staphylococcus aureus, 555, 360 h
[32] = test system: Staphylococcus aureus; assay: Antimicrobial activity against methicillin-resistant Staphylococcus aureus 525 after 28 passages by macrodilution method
[33] = test system: Staphylococcus aureus; assay: Antimicrobial activity against vancomycin-intermediate Staphylococcus aureus 1287 measured on day 35 by macrodilution method
[34] = test system: Staphylococcus aureus; assay: Antimicrobial activity against methicillin-susceptible Staphylococcus aureus 543 measured after 10 antibiotic-free subculturing by macrodilution method
[35] = test system: Staphylococcus aureus; assay: Antimicrobial activity against heterogeneous vancomycin-intermediate Staphylococcus aureus 873 measured after 10 antibiotic-free subculturing by macrodilution method
[36] = test system: Staphylococcus aureus; assay: Antimicrobial activity against methicillin-susceptible Staphylococcus aureus 543 measured on day 30 by macrodilution method
[37] = test system: Staphylococcus aureus; assay: Antimicrobial activity against vancomycin-intermediate Staphylococcus aureus 555 measured on day 10 by macrodilution method; conditions: Staphylococcus aureus, 555, 240 h
[38] = test system: Staphylococcus aureus; assay: Antimicrobial activity against heterogeneous vancomycin-intermediate Staphylococcus aureus 873 measured on day 45 by macrodilution method
[39] = test system: Staphylococcus aureus; assay: Antimicrobial activity against heterogeneous vancomycin-intermediate Staphylococcus aureus 873 after 30 passages by macrodilution method
[40] = test system: Staphylococcus aureus; assay: Antimicrobial activity against vancomycin-resistant Staphylococcus aureus 510 measured on day 45 by macrodilution method
[41] = test system: Staphylococcus aureus; assay: Antimicrobial activity against vancomycin-intermediate Staphylococcus aureus 1287 measured on day 40 by macrodilution method
[42] = test system: Staphylococcus aureus; assay: Antimicrobial activity against vancomycin-intermediate Staphylococcus aureus 1287 measured after 10 antibiotic-free subculturing by macrodilution method
[43] = test system: Staphylococcus aureus; assay: Antimicrobial activity against methicillin-resistant Staphylococcus aureus 547 measured on day 20 by macrodilution method; conditions: Staphylococcus aureus, 547, 480 h
[44] = test system: Staphylococcus aureus; assay: Antimicrobial activity against vancomycin-intermediate Staphylococcus aureus 555 measured on day 40 by macrodilution method
[45] = test system: Staphylococcus aureus; assay: Antimicrobial activity against methicillin-resistant Staphylococcus aureus 547 measured on day 25 by macrodilution method; conditions: Staphylococcus aureus, 547, 600 h
[46] = test system: Staphylococcus aureus; assay: Antimicrobial activity against vancomycin-intermediate Staphylococcus aureus 1287 measured on day 30 by macrodilution method
[47] = test system: Staphylococcus aureus; assay: Antimicrobial activity against vancomycin-intermediate Staphylococcus aureus 1287 measured on day 5 by macrodilution method; conditions: Staphylococcus aureus, 1287, 120 h
[48] = test system: Staphylococcus aureus; assay: Antimicrobial activity against methicillin-susceptible Staphylococcus aureus 540 measured on day 25 by macrodilution method; conditions: Staphylococcus aureus, 540, 600 h
[49] = test system: Staphylococcus aureus; assay: Antimicrobial activity against vancomycin-intermediate Staphylococcus aureus 1287 measured on day 15 by macrodilution method; conditions: Staphylococcus aureus, 1287, 360 h

## C[C@H]1C=C(c2csc(SC3=C(C(=O)O)N4C(=O)[C@H]([C@@H](C)O)[C@H]4[C@H]3C)n2)CN1 [RAZUPENEM]
[1]
  MIC: 4 µg/mL (≈ 9.82 µM)
[2]
  MIC: 4 µg/mL (≈ 9.82 µM)
[3]
  MIC: 4 µg/mL (≈ 9.82 µM)
[4]
  MIC: 0.5 µg/mL (≈ 1.23 µM)
[5]
  MIC: 2 µg/mL (≈ 4.91 µM)
[6]
  MIC: 0.5 µg/mL (≈ 1.23 µM)
[7]
  MIC: 0.125 µg/mL (≈ 0.307 µM)
[8]
  MIC: 1 µg/mL (≈ 2.45 µM)
[9]
  MIC: 0.03 µg/mL (≈ 0.0736 µM)
[10]
  MIC: 16 µg/mL (≈ 39.3 µM)
[11]
  MIC: 2 µg/mL (≈ 4.91 µM)
[12]
  MIC: 8 µg/mL (≈ 19.6 µM)
[13]
  MIC: 4 µg/mL (≈ 9.82 µM)
[14]
  MIC: 32 µg/mL (≈ 78.5 µM)
[15]
  MIC: 4 µg/mL (≈ 9.82 µM)
[16]
  MIC: 1 µg/mL (≈ 2.45 µM)
[17]
  MIC: 8 µg/mL (≈ 19.6 µM)
[18]
  MIC: 8 µg/mL (≈ 19.6 µM)
[19]
  MIC: 0.016 µg/mL (≈ 0.0393 µM)
[20]
  MIC: 16 µg/mL (≈ 39.3 µM)
[21]
  MIC: 8 µg/mL (≈ 19.6 µM)
[22]
  MIC: 8 µg/mL (≈ 19.6 µM)
[23]
  MIC: 8 µg/mL (≈ 19.6 µM)
[24]
  MIC: 0.06 µg/mL (≈ 0.147 µM)
[25]
  MIC: 16 µg/mL (≈ 39.3 µM)
[26]
  MIC: 0.06 µg/mL (≈ 0.147 µM)
[27]
  MIC: 4 µg/mL (≈ 9.82 µM)
[28]
  MIC: 0.06 µg/mL (≈ 0.147 µM)
[29]
  MIC: 8 µg/mL (≈ 19.6 µM)
[30]
  MIC: 0.5 µg/mL (≈ 1.23 µM)
[31]
  MIC: 2 µg/mL (≈ 4.91 µM)
[32]
  MIC: 16 µg/mL (≈ 39.3 µM)
[33]
  MIC: 2 µg/mL (≈ 4.91 µM)
[34]
  MIC: 0.016 µg/mL (≈ 0.0393 µM)
[35]
  MIC: 8 µg/mL (≈ 19.6 µM)
[36]
  MIC: 8 µg/mL (≈ 19.6 µM)
[37]
  MIC: 1 µg/mL (≈ 2.45 µM)
[38]
  MIC: 16 µg/mL (≈ 39.3 µM)
[39]
  MIC: 16 µg/mL (≈ 39.3 µM)
[40]
  MIC: 8 µg/mL (≈ 19.6 µM)
[41]
  MIC: 2 µg/mL (≈ 4.91 µM)
[42]
  MIC: 0.25 µg/mL (≈ 0.613 µM)
[43]
  MIC: 4 µg/mL (≈ 9.82 µM)
[44]
  MIC: 4 µg/mL (≈ 9.82 µM)
[45]
  MIC: 4 µg/mL (≈ 9.82 µM)
[46]
  MIC: 16 µg/mL (≈ 39.3 µM)
[47]
  MIC: 0.25 µg/mL (≈ 0.613 µM)
[48]
  MIC: 0.03 µg/mL (≈ 0.0736 µM)
[49]
  MIC: 0.25 µg/mL (≈ 0.613 µM)
